Data published in patent US7270966B2, “Human pyrimidine receptor” (Euroscreen SA, priority 1995, dated 2007).
Read-outs that look alike come from different tables or passages of the source.

Tests used:
[1] = tested on: muscarinic receptors endogenously expressed in the 1321N1 cells; assay: Action of carbachol (InsP3) via muscarinic receptors endogenously expressed in 1321N1 cells; format: cell-based, human; settings: cells transfected with P2Y4-pcDNA3 or vector alone
Experimental: (§1) 1321N1 cells were labeled for 24 hours with 10 μCi/ml [^3H] inositol in inositol-free DMEM (Dulbecco's modified Eagle's medium) medium containing 5% fetal calf serum, 100 U/ml penicillin, 100 μg/ml streptomycin, 2.5 μg/ml amphotericin B and 400 μg/ml G418. Cells were washed twice with KRH (Krebs-Ringer Hepes) buffer of the following composition: (124 mM NaCl, 5 mM KCl, 1.25 mM MgSC4, 1.45 mM CaCl2, 25 mM Hepes (pH 7.4) and 8 mM glucose) and incubated in this medium for 30 min The agonists were added in the presence of LiCl (10 mM) and the incubation was stopped after 30 s, 5 min or 20 min by the addition of an ice-cold 3% perchloric acid solution. For the time course study, LiCl (10 mM) was added 5 min before the agonists and the incubation was stopped at different times. When tested, pertussis toxin (20 ng/ml) was added for 18 h during the labeling period time and during the stimulation by the agonist. Inositol phosphates were extracted and InsP3 was isolated by chromatography on Dowex column as described previously (17).
The maximal effect of ATP observed after a 20 min incubation represented about 27±9% of that of UTP (mean±S.D. of ten experiments). […] The ATP concentration-inhibition curves were shifted to the right when the UTP concentration was increased, indicating the competitive nature of this inhibitory effect (panels A and B). On the other hand, at lower concentrations (30-300 μM), ATP enhanced the response to UTP by 29% (range 12-47%, mean of four experiments) (panel B). […] This observation was reproduced with cells transfected with the recombinant P2Y4-pcDNA3 plasmid or with the vector alone and was also obtained with AMP and adenosine (data not shown).

human P2Y4 receptor [2] = molecular target: T1, human P2Y4 receptor (Homo sapiens, UniProt P51582); assay: InsP3 accumulation in 1321N1 cells expressing the human P2Y4 receptor; format: cell-based; settings: for agonist effect on InsP3 at 30 s: 30 s incubation, 100 μM; for functional response (IP3 accumulation) in pool of G418-resistant clones: pool of transfected 1321N1 clones; for effect per se on InsP3 production: agonist alone
T1 construct: expressed in transfected cells; host or cells: 1321N1 human astrocytoma cells, G418-selected clone, pcDNA3-P2Y4
T1 sequence (P51582 whole entry): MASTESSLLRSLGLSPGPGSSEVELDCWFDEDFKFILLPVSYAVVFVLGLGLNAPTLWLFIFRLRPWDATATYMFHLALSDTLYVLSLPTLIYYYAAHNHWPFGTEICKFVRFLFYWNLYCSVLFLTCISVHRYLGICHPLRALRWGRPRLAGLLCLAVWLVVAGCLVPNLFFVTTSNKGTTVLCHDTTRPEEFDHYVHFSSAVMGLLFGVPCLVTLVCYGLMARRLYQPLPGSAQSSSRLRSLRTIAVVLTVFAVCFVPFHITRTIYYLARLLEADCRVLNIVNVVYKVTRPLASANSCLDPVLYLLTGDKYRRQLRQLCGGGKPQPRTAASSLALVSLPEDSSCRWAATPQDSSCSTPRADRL
Experimental: Cells were transfected with the recombinant pcDNA3 plasmid (pcDNA3-P2Y4) using the calcium phosphate precipitation method as described (16). 1321N1 cells were incubated for 6 hours at 37° C. in the presence of pcDNA3 vector alone or vector containing the P2Y4 receptor coding sequence, then washed and incubated in culture medium (10% FCS, 100 U/ml penicillin, 100 μ/ml streptomycin and 2.5 μg/ml amphotericin B in Dulbecco's modified Eagle's medium (DMEM)). The selection with G418 (400 μg/ml) was started two days after transfection. From the pool of transfected 1321N1 cells, individual clones were isolated by limiting dilution with the aim of selecting clones with high IP stimulation factors in response to nucleotides. The different clones were maintained in a medium containing 400 μg/ml G418.
as §1

human P2Y4 receptor [3] = molecular target: T1, human P2Y4 receptor; assay: Radioligand binding of [α32P]UTP to membranes of P2Y4-transfected 1321N1 clones; settings: clones 2, 11 and 21; 0.5 nM radioligand; data not shown
Experimental: Binding assays of [α^32P] UTP to cell membranes were carried out in Tris-HCl (50 mM, pH 7.5), EDTA 1 mM in a final volume of 0.5 ml, containing 25-50 μg of protein and 0.5 nM of radioligand (27). The assays were conducted at 30° C. for 5 min. Incubations were stopped by the addition of 4 ml of ice-cold Tris-HCl (50 mM, pH 7.5) and rapid filtration through Whatman GF/B filters under reduced pressure. The filters were then washed three times with 2 ml of the same ice-cold Tris-HCl buffer. Radioactivity was quantified by liquid scintillation counting, after an overnight incubation of the filters in liquid scintillation mixture.

[4] = 20 min incubation, 10 mM LiCl, read-out: EC50 InsP3 accumulation, full concentration-action curves
[5] = antagonist 100 μM, UTP 2 and 10 μM, 20 min
[6] = clone 2, 20 min incubation, 10 mM LiCl, read-out: EC50 InsP3 production
[7] = clone 11, 20 min incubation, 10 mM LiCl, read-out: EC50 InsP3 production
[8] = clone 21, 20 min incubation, 10 mM LiCl, read-out: EC50 InsP3 production

Compound: Nc1ncnc2c1ncn2[C@@H]1O[C@H](COP(=O)(O)OP(=O)(O)OP(=O)(O)O)[C@@H](O)[C@H]1O [ATP]
- effect on the action of carbachol [1]: increased
- agonist effect on InsP3 at 30 s (human P2Y4 receptor [2]): no effect
- EC50 (human P2Y4 receptor [2]; [4]): ~43 µM
- maximal effect relative to that of UTP (human P2Y4 receptor [2]; 20 min incubation, % of UTP maximal effect): about 27±9%
- enhancement of the response to UTP (human P2Y4 receptor [2]; ATP 30-300 μM, 20 min): 29%
- antagonism of the response to UTP (human P2Y4 receptor [2]; UTP 10 μM, ATP 2 mM, 30 s): fully antagonized
- inhibition of the UTP effect (human P2Y4 receptor [2]; UTP 10 μM, ATP 2 mM, 20 min): 62±11%
- ATP concentration able to inhibit the effect of UTP (human P2Y4 receptor [2]; both at 30 s and 20 min): ≥ 500 µM
- functional response (IP3 accumulation) in pool of G418-resistant clones (human P2Y4 receptor [2]): agonists

Compound: Nc1c(S(=O)(=O)O)cc(Nc2ccc(Nc3nc(Cl)nc(Nc4cccc(S(=O)(=O)O)c4)n3)c(S(=O)(=O)O)c2)c2c1C(=O)c1ccccc1C2=O [RB-2, reactive blue 2]
- inhibition of the UTP response by antagonist (human P2Y4 receptor [2]): 33±5%

Compound: Nc1ncnc2c1ncn2[C@@H]1O[C@H](COP(=O)(O)O)[C@@H](O)[C@H]1O [AMP]
- effect on the action of carbachol [1]: increased
- effect per se on InsP3 production (human P2Y4 receptor [2]; data not shown): without any effect

Compound: O=c1ccn(C2OC(CO[32P](=O)(O)OP(=O)(O)OP(=O)(O)O)C(O)C2O)c(=O)[nH]1 (stereo not drawn) [[α^32P] UTP]
- specific binding versus cells transfected with the vector alone (human P2Y4 receptor [3]): no increase in specific binding

Compound: Cc1ccc(C(=O)Nc2ccc(S(=O)(=O)O)c3cc(S(=O)(=O)O)cc(S(=O)(=O)O)c23)cc1NC(=O)c1cccc(NC(=O)Nc2cccc(C(=O)Nc3cc(C(=O)Nc4ccc(S(=O)(=O)O)c5cc(S(=O)(=O)O)cc(S(=O)(=O)O)c45)ccc3C)c2)c1 [suramin]
- inhibition of the UTP response by antagonist (human P2Y4 receptor [2]; [5]): inactive

Compound: Nc1ncnc2c1ncn2[C@@H]1O[C@H](COP(=O)(O)OP(=O)(O)OP(O)(O)=S)[C@@H](O)[C@H]1O [ATPyS]
- effect per se on InsP3 production (human P2Y4 receptor [2]; data not shown): without any effect

Compound: O=c1ccn([C@@H]2O[C@H](CO)[C@@H](O)[C@H]2O)c(=O)[nH]1 [uridine]
- effect per se on InsP3 production (human P2Y4 receptor [2]; data not shown): without any effect

Compound: O=c1[nH]c(=O)n([C@@H]2O[C@H](COP(=O)(O)OP(=O)(O)OP(=O)(O)O)[C@@H](O)[C@H]2O)cc1Br [5BrUTP]
- agonist effect on InsP3 at 30 s (human P2Y4 receptor [2]): barely or not active
- EC50 (human P2Y4 receptor [2]; [4]): 27.1 ± 1.9 µM

Compound: O=c1ccn([C@@H]2O[C@H](COP(=O)(O)OP(=O)(O)OP(=O)(O)O)[C@@H](O)[C@H]2O)c(=O)[nH]1 [UTP, uridine triphosphate]
- EC50 (human P2Y4 receptor [2]; 20 min, 100 μM PPADS, read-out: EC50 value for UTP in the presence of PPADS): 12.2 ± 4.5 µM
- EC50 (human P2Y4 receptor [2]; 20 min, no PPADS, read-out: EC50 value for UTP in the absence of PPADS): 3.3 ± 0.6 µM
- EC50 (human P2Y4 receptor [2]; [4]): 2.5 ± 0.6 µM
- EC50 (human P2Y4 receptor [2]; [6]): 0.3 ± 0.1 µM
- potency of UTP relative to UDP (human P2Y4 receptor [2]; clone 11, 20 min incubation): 10 fold
- EC50 (human P2Y4 receptor [2]; [7]): 2.4 ± 0.1 µM
- EC50 (human P2Y4 receptor [2]; [8]): 0.3 ± 0.1 µM
- functional response (IP3 accumulation) in pool of G418-resistant clones (human P2Y4 receptor [2]): agonists

Compound: Nc1ncnc2c1ncn2[C@@H]1O[C@H](COP(=O)(O)OP(=O)(O)O)[C@@H](O)[C@H]1O [ADP]
- effect on the action of carbachol [1]: increased
- inhibition of the action of UTP (qualitative) (human P2Y4 receptor [2]): did not inhibit
- stimulation by UTP in presence of ADP, relative to UTP alone (human P2Y4 receptor [2]; ADP 100 μM, UTP 10 μM): 158±15%
- effect per se on InsP3 production (human P2Y4 receptor [2]; data not shown): almost no effect

Compound: O=c1[nH]cnc2c1ncn2[C@@H]1O[C@H](COP(=O)(O)OP(=O)(O)OP(=O)(O)O)[C@@H](O)[C@H]1O [ITP]
- agonist effect on InsP3 at 30 s (human P2Y4 receptor [2]): barely or not active
- EC50 (human P2Y4 receptor [2]; [4]): 32.8 ± 5.4 µM

Compound: O=c1ccn([C@H]2C[C@H](O)[C@@H](COP(=O)(O)OP(=O)(O)OP(=O)(O)O)O2)c(=O)[nH]1 [dUTP]
- agonist effect on InsP3 at 30 s (human P2Y4 receptor [2]): barely or not active
- EC50 (human P2Y4 receptor [2]; [4]): 20 ± 2.3 µM

Compound: Cc1nc(N=Nc2ccc(S(=O)(=O)O)cc2S(=O)(=O)O)c(COP(=O)(O)O)c(C=O)c1O [PPADS]
- inhibition of the UTP response by antagonist (human P2Y4 receptor [2]; [5]): 73±14%
- IC50 (human P2Y4 receptor [2]; data not shown, read-out: IC50 for inhibition of the UTP response): ~15 µM

Compound: pertussis toxin
- inhibition of the UTP response by pertussis toxin (human P2Y4 receptor [2]; 20 ng/ml, 18 hours pretreatment, UTP 100 μM, 30 s): 62±5%
- effect of pertussis toxin on the UTP response (human P2Y4 receptor [2]; 20 ng/ml, 18 hours pretreatment, UTP 100 μM, 5 min): no significant effect
- effect of pertussis toxin on the UTP response (human P2Y4 receptor [2]; 20 ng/ml, 18 hours pretreatment, UTP 100 μM, 20 min): no significant effect

Compound: O=c1ccn([C@@H]2O[C@H](COP(=O)(O)OP(=O)(O)O)[C@@H](O)[C@H]2O)c(=O)[nH]1 [UDP]
- agonist effect on InsP3 at 30 s (human P2Y4 receptor [2]): barely or not active
- EC50 (human P2Y4 receptor [2]; [4]): 19.5 ± 3.9 µM
- EC50 (human P2Y4 receptor [2]; [6]): 3.3 ± 0.6 µM
- EC50 (human P2Y4 receptor [2]; [7]): 19.8 ± 4.8 µM
- EC50 (human P2Y4 receptor [2]; [8]): 3.2 ± 0.8 µM

Compound: Nc1ncnc2c1ncn2[C@@H]1O[C@H](CO)[C@@H](O)[C@H]1O [adenosine]
- effect on the action of carbachol [1]: increased
- effect per se on InsP3 production (human P2Y4 receptor [2]; data not shown): without any effect

Compound: O=c1ccn([C@@H]2O[C@H](COP(=O)(O)O)[C@@H](O)[C@H]2O)c(=O)[nH]1 [UMP]
- effect per se on InsP3 production (human P2Y4 receptor [2]; data not shown): without any effect
